Tests used:
Human PARP-1 enzyme = biological target: T1, Human PARP-1 enzyme (Homo sapiens, UniProt P09874); assay: In vitro Scintillation Proximity Assay (SPA) for PARP-1 inhibitory activity; type: biochemical; conditions: read-out: in vitro SPA assay PARP-1 pIC50 (converted)
T1 construct: purchased Trevigen
Method: Compounds of the present invention were tested in an in vitro assay based on SPA technology (proprietary to GE healthcare).
In principle, the assay relies upon the well established SPA technology for the detection of poly(ADP-ribosyl)ation of biotinylated target proteins, i.e histones. This ribosylation is induced using nicked DNA activated PARP-1 enzyme and [^3H]-nicotinamide adenine dinucleotide ([^3H]-NAD^+) as ADP-ribosyl donor.
Histones (type II-A, supplier: Sigma) were biotinylated using the biotinylation kit of Amersham and stored aliquoted at −20° C. A stock solution of 100 mg/ml SPA poly(vinyl toluene) (PVT) beads (supplier: Amersham) was made in PBS. A stock solution of 61.6 nM [^3H]-NAD^+ was made by adding [^3H]-NAD^+ (0.1 mCi/ml, supplier: Perkin Elmer) to incubation buffer (50 mM Tris/HCl, pH 8; 0.2 mM DTT; 4 mM MgCl2). A solution of 4 mM NAD^+ (supplier: Sigma) was made. Human PARP-1 enzyme was obtained from Trevigen. Biotinylated histones and PVT-SPA beads were mixed and pre-incubated for 30 min. at room temperature. PARP-1 enzyme (concentration was lot dependent) was mixed with the nicked DNA and the mixture was pre-incubated for 30 min. at 4° C. Equal parts of this histones/PVT-SPA beads solution and PARP-1 enzyme/DNA solution were mixed and 75 μl of this mixture together with 1 μl of compound in DMSO and 25 μl of [^3H]-NAD^+ was added per well into a 96-well microtiterplate. The final concentrations in the incubation mixture were 2 μg/ml for the biotinylated histones, 2 mg/ml for the PVT-SPA beads, 0.25 μg/ml for the nicked DNA and between 0.1-0.2 μg/ml for the PARP-1 enzyme. After incubation of the mixture for 20 min. at room temperature, the reaction was terminated by adding 100 μl of 4 mM NAD^+ in water (final concentration 2 mM) and plates were mixed. The beads were sedimented by centrifugation (10 min, 800 rpm). and plates transferred to a TopCountNXT™ (Packard) for scintillation counting, values were expressed as counts per minute (cpm). For each experiment, controls (containing PARP-1 enzyme and DMSO without compound), a blank incubation (containing DMSO but no PARP-1 enzyme, no DNA or compound) and samples (containing PARP-1 enzyme, DNA and compound dissolved in DMSO) were run in parallel. All compounds tested were dissolved and eventually further diluted in DMSO. A dose-response curve was made wherein the compounds were tested at concentrations between 10^−5M and 3×10^−9M. In each test, the blank value was subtracted from both the control and the sample values. The control sample represented maximal PARP-1 enzyme activity. For each sample, the amount of cpm was expressed as a percentage of the mean cpm value of the controls. When appropriate, IC50-values (concentration of the drug, needed to reduce the PARP-1 enzyme activity to 50% of the control) were computed using linear interpolation between the experimental points just above and below the 50% level. Herein the effects of test compounds are expressed as pIC50 (the negative log value of the IC50-value). As a reference compound, 4-amino-1,8-naphthalimide was included to validate the SPA assay.

HCT116 cells = assay: Antiproliferative activity, Alamar Blue assay, HCT116 cells; type: cell-based, human; conditions: Homo sapiens, HCT-116, HCT116 cells; read-out: HCT116 antiproliferative activity pIC50 (converted)
Method: Human colon carcinoma HCT116 cells obtained from the ATCC were cultured in McCoy's 5 A medium supplemented with 2 mM L-Glutamine, 50 μg/ml gentamicin and 10% heat inactivated fetal calf serum.
(§1) Resazurin was purchased from Aldrich (Prod. No. 199303). Potassium ferrocyanide, potassium ferricyanide, KH2PO4 and K2HPO4 were purchased from Sigma (Prod. Nos. P9387, P8131, P5655 and P8281, respectively).
(§2) Potassium Phosphate Buffer 0.1 M (PPB) was made as follows: 2.72 gram KH2PO4 and 13.86 gram K2HPO4 were dissolved in 500 ml milli-Q H2O, the pH was adjusted to pH 7.4 and the volume was brought to 1 litre with milli-Q H2O; the buffer was filter sterilised and stored at room temperature. Resazurin stock solution (PPB-A) was prepared fresh by dissolving 45 mg resazurin in 15 ml PBS. 30 mM potassium ferricyanide (PPB-B) was prepared by dissolving 0.987 gram potassium ferricyanide in 100 ml PPB. 30 mM potassium ferrocyanide (PPB-C) was prepared by dissolving 1.266 gram potassium ferrocyanide in 100 ml PPB.
(§3) Mixture of PPB-A, PPB-B and PPB-C was prepared by mixing equal volumes of the respective solutions. Resazurin work solution (herein termed “Alamar Blue” solution) was prepared by diluting said mixture 20×(vol/vol) in PPB and filter sterilising; the Alamar Blue solution could be kept at 4° C. for a maximum of 2 weeks.
(§4) For experiments in 384 wells plates the cells were seeded at a density of 4.5×10^3 cells/ml in Falcon 384-well culture plates (Life Technologies, Merelbeke, Belgium), black with clear bottom, in 45 μl culture medium. Cells were allowed to adhere to plastic for 24 hr. The tested compound was pre-diluted (1/50 in culture medium) and 5 μl pre-diluted compound was added to the wells. Following 4-day incubation, 10 μl of the Alamar Blue solution was added to each well and the cells were further incubated for 4 hrs (HCT116) or 24 hrs (PC-3) at 37° C. The fluorescence intensity was measured for each well on a Fluorescence plate reader (Fluorskan, Labsystems, 540 nm excitation and 590 nm emission)
(§5) The antiproliferative activity was calculated as percentage of remaining viable cells in treated versus control (untreated cells) conditions. Within an experiment, the result for each experimental condition is the mean of 3 replicate wells. When appropriate, the experiments were repeated to establish full concentration-response curves. When appropriate, IC50-values (concentration of the drug, needed to reduce cell growth to 50% of the control) were computed using probit analysis for graded data (Finney, D. J., Probit Analyses, 2nd Ed. Chapter 10, Graded Responses, Cambridge University Press, Cambridge 1962). Herein the effects of test compounds are expressed as pIC50 (the negative log value of the IC50-value) (see Table 2).

PC-3 cells = assay: Antiproliferative activity, Alamar Blue assay, PC-3 cells; type: cell-based, human; conditions: Homo sapiens, PC-3, PC3 cells; read-out: PC3 antiproliferative activity pIC50 (converted)
Method: Human prostate cancer PC-3 cells obtained from the ATCC were cultured in HAM′S F12 medium supplemented with 1 mM Sodium Pyruvate, 1.5 g/L Sodium Bicarbonate, 50 μg/ml gentamicin, non-essential amino acids and 10% fetal calf serum.
as §1, §2, §3, §4, §5

PC3 cells = assay: EB1 Comet (microtubule disruption) assay; type: cell-based, human; conditions: Homo sapiens, PC-3, 1 h, 1 hour treatment, read-out: EB1 pLAC (converted)
Method: The Eb1 Comet assay relies on the detection of the Eb1 protein at the plus end of polymerizing microtubules (Mimori-Kiyosue, 2000) using indirect immunofluorescence. Disruption of microtubule dynamics through de-polymerization or stabilization results in a de-localization of Eb1 from the growing microtubule ends and this is visualized by the disappearance of Eb1 containing cytoplasmic foci.
Briefly, human prostate cancer PC3 cells obtained from the American Type Culture Collection were grown in 96-well plates (Greiner, cat. no. 655090) in HAM's F12 medium as recommended by the provider (ATCC). The cells were treated for 1 hour at 37° C. with compounds dissolved in DMSO (0.6% final DMSO concentration). The culture medium was then removed by aspiration and the cells were fixed by adding cold methanol (−20 C). After a 15 min. incubation at −20 C, the cells were washed twice with DPBS (Gibco) containing 0.5% Triton X-100. Mouse Eb1 antibody (BD Transduction Laboratories, cat. no. 610534) was added to the cells (1/250 dilution in DPBS containing 1% BSA) and incubated overnight at room temperature. The antibody was subsequently removed and the cells washed twice with DPBS, 0.5% Triton X-100. Secondary goat anti-mouse antibody conjugated to Alexa 488 fluorescent dye (Molecular Probes) was added at a 1/500 dilution in DPBS, 1% BSA and incubated for 1 hour at 37 C. The cells were washed twice with DPBS, 0.5% Triton X-100 and then DPBS containing 0.5% Triton X-100 and 1/5000 Hoechst 33342 (Molecular Probes) was added. Microscopy based Eb1 foci visualization was carried out using an IN Cell Analyser 1000 (Amersham Biosciences) using a 20× objective. Compound dependent microtubule disruption was visually determined by the disappearance in Eb1 foci. The lowest active concentration (LAC) was determined as the concentration where Eb1 foci were absent in at least 50% of the treated cells.

T1 sequence (P09874 whole entry): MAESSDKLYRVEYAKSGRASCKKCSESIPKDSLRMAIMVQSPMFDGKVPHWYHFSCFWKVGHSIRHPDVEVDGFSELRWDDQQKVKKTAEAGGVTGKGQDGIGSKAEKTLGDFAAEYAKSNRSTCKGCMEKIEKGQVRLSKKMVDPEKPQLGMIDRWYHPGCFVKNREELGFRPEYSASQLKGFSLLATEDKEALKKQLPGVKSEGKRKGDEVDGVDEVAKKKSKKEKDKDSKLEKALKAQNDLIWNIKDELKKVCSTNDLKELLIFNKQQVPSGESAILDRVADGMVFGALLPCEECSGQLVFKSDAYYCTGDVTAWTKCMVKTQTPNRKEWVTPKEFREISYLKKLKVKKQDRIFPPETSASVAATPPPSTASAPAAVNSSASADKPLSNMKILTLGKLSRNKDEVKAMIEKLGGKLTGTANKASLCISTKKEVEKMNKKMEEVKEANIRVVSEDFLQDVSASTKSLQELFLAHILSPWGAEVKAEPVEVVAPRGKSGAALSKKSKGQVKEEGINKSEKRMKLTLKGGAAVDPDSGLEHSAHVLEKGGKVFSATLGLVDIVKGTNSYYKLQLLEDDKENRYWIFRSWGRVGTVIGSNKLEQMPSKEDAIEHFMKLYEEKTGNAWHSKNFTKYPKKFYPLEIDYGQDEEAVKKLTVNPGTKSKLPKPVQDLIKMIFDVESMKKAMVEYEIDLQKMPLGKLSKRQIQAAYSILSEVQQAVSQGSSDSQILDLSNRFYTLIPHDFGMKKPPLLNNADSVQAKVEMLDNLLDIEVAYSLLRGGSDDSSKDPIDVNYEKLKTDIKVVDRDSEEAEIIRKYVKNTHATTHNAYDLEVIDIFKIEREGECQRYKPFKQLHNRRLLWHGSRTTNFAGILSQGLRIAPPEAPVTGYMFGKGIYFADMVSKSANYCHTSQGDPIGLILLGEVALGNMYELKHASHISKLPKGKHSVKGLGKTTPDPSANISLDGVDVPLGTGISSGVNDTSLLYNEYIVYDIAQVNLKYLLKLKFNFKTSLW

SMILES | melting point | IC50 (Human PARP-1 enzyme) | IC50 (HCT116 cells) | IC50 (PC-3 cells) | minimal effective concentration (PC3 cells)
CCc1cc2ccc(C(C)(C#N)Cc3cccc(CC#N)c3)cc2[nH]c1=O (centres unmarked) | 150 °C | – | – | – | –
CCc1cc2ccc(C(C)(C#N)Cc3cccc(C#N)c3C)cc2[nH]c1=O (centres unmarked) [Compound 4] | 174 °C | – | – | – | –
CCc1cc2ccc(C(C)(C#N)Cc3ccc(OCCCN4CCOCC4)c(C#N)c3)cc2[nH]c1=O (centres unmarked) [Compound 5] | 153 °C | – | – | – | –

Further lines, with some results ahead:

melting point | IC50 (Human PARP-1 enzyme) | IC50 (HCT116 cells) | IC50 (PC-3 cells) | SMILES | minimal effective concentration (PC3 cells)
– | 501 nM | 501 nM | 1260 nM | Cc1cc2ccc([C@](C)(C#N)[C@H]3CCCc4ccccc43)cc2[nH]c1=O [Compound 383] | 3.16 µM
– | 398 nM | 3980 nM | 5010 nM | Cc1cc2ccc(C(C)(C#N)Cc3cccc(C#CC(C)(C)O)n3)cc2[nH]c1=O (centres unmarked) [Compound 401] | 3.16 µM

Reference: patent publication US8778966B2, “Quinolinone derivatives as PARP and tank inhibitors” (Janssen Pharmaceutica, NV, priority 2007, dated 2014)
